Reference: patent publication US20250369975A1, “METHOD FOR DETECTING TRANSTHYRETIN TETRAMER, AND METHOD FOR EVALUATING STABILITY” (SYSMEX CORPORATION, priority 2024, published 2025)
Read-outs that look alike come from different tables or passages of the source.

Columns and labels:
Format in all cases: binding
[1] = tested on: TTR tetramer (recombinant human transthyretin WT, T119M, V30M); conditions: probe solution 0.3 μM immobilized on solid phase; recombinant TTR 100 ng/mL; FIG. 16A-B
[2] = tested on: TTR tetramer (recombinant human transthyretin WT, T119M, V30M); conditions: probe solution 10 μM; recombinant TTR 100 ng/mL; FIG. 14A-D
[3] = molecular target: T1, TTR tetramer in plasma sample (Homo sapiens, UniProt P02766); assay: Example 3: same format, serially diluted plasma samples; conditions: probe solution 0.2 μM, FIG. 19B
T1 construct: serially diluting commercially available serum (ProMedex Corporation, 12011378); tissue ProMedex Corporation (serum); host or cells: serum and plasma mix
Protocol: (§1) (1.2) Blood sample Six serum samples were prepared by serially diluting commercially available serum (ProMedex Corporation, 12011378) with 1% BSA/0.5% casein/PBS. Also six plasma samples were prepared by serially diluting a commercially available plasma mix with 1% BSA/0.5% casein/PBS.
The sample containing the recombinant TTR and the plasma sample were the same as in Example 1. Probes C5 and C6 were diluted with 1% BSA/0.5% casein/PBS, to prepare a probe solution (0.2 μM). The same ALP-labeled polyclonal anti-TTR antibody as in Example 2 was diluted 3200 times with 1% BSA/0.1% goat IgG/0.01% mouse IgG/0.005% scavenger ALP/PBS, to prepare a labeled antibody solution. The substrate solution and solid phase of ALP were the same as those in Example 2.
150 μL of each sample and 150 μL of the probe solution were mixed, and incubated at room temperature for 1 hour. As a control (blank), instead of the sample, 150 μL of 1% BSA/0.5% casein/PBS and 150 μL of the probe solution were mixed, and incubated in the same manner. […] 100 μL of a substrate solution of ALP was added to each well, and after 15 minutes, a chemiluminescence signal was measured with a plate reader. The samples were measured twice, and an average value of the two measured values was acquired. […]

[4] = tested on: TTR tetramer (recombinant human transthyretin WT, T119M, V30M); conditions: probe solution 0.2 μM mixed with sample; FIG. 18A-B
[5] = molecular target: T2, TTR tetramer in blood sample (serum, plasma) (Homo sapiens, UniProt P02766); assay: Example 2: same format, serially diluted serum and plasma samples; conditions: probe immobilized on solid phase
T2 construct: serially diluting commercially available serum (ProMedex Corporation, 12011378); tissue ProMedex Corporation (serum); host or cells: serum and plasma mix
Protocol: as §1
The sample containing the recombinant TTR and the blood sample were the same as in Example 1. Probes C5 and C6 were diluted with 1% BSA/0.5% casein/PBS, to prepare a probe solution (0.3 μM). An ALP-labeled polyclonal anti-TTR antibody is used as the labeled antibody capable of binding to the TTR monomer. The labeled antibody was prepared by labeling a polyclonal rabbit anti-human prealbumin antibody (Agilent, A0002) with ALP by a usual method. […]
To each well of the plate, 300 μL of a blocking solution (1% BSA/0.5% casein/PBS) was added, followed by incubation for 1 hour at room temperature. […] 100 μL of a substrate solution of ALP was added to each well, and after 15 minutes, a chemiluminescence signal was measured with a plate reader. The samples were measured twice, and an average value of the two measured values was acquired. Results of measurement of the sample that contains the recombinant TTR are illustrated in FIGS. 16A and B. Measured results of the blood samples are illustrated in FIGS. 17A to D.

[6] = molecular target: T3, TTR tetramer (wild-type recombinant human transthyretin) (Homo sapiens, UniProt P02766); assay: Example 5: HISCL-5000 automated immunoassay, tagged probe, streptavidin magnetic particle, ALP-labeled monoclonal anti-TTR antibody; conditions: R1 reagent 0.3 μM probe; WT TTR 10 and 100 μg/mL; FIG. 21B
T3 construct: purchased AlexoTech T-500-10
Protocol: A sample containing wild-type (WT) recombinant TTR at respective concentrations of 10 μg/mL and 100 μg/mL was prepared by diluting transthyretin (wild-type) human, recombinant (AlexoTech, T-500-10) with 1% BSA/0.5% casein/PBS.
(2.1) R1 reagent As R1 buffer, a […] buffer (pH 8.0±0.05) containing 1% BSA, 0.15 g/L mouse IgG, 0.1% sodium azide, […], 0.1% Tween® 20 and 20 mg/mL alkaline phosphatase (AP) mutein was prepared. Probe C5 was diluted with R1 buffer, to prepare R1 reagent (0.1 μM) containing probe C5. Probe C6 was also diluted with R1 buffer, to prepare R1 reagent (0.3 μM) that contains probe C6.
As R3 buffer, a 0.1 mol/L HEPES buffer (pH 8.0±0.05) containing 1% BSA, 0.15 g/L murine IgG, 0.1% sodium azide, 0.15 mol/L NaCl, 0.1% Tween20.20 mg/mL AP mutein, 1.0 mmol/L MgCl, and 0.1 mmol/L ZnCl of 2 was prepared. An ALP-labeled monoclonal anti-TTR antibody was used as the labeled antibody capable of binding to the TTR monomer. […]
50 μL of each R1 reagent was added to the cuvette, to which 30 μL of the sample was then added, followed by incubation for 2.5 minutes. […] Five minutes later, the chemiluminescence signal was measured with HISCL-5000. As a control (blank), the sample was similarly measured with use of 30 μL of 1% BSA/0.5% casein/PBS instead of the sample. […]

O=C(CCCCC1SCC2NC(=O)NC21)NCCOCCOCCOCCOCCOCCOCCOCCOCCOCCOCCOCCOCCC(=O)Nc1ccc(/C=C/c2cc(Br)c(O)c(Br)c2)cc1 (stereo not shown) [Probe C6, Biotin-PEG12-Stilbene Derivative]
chemiluminescence signal measured values of WT, T119M and V30M samples versus blank [1]: a result similar to that of FIG. 16 A | chemiluminescence signal measured values of WT, T119M and V30M samples versus blank [2]: results similar to those of FIG. 14 A | signal measured value of the plasma sample versus dilution factor [3]: increased according to the dilution factor | chemiluminescence signal measured values of WT, T119M and V30M samples versus blank [4]: a result similar to that of FIG. 18 A | signal measured value of the plasma sample versus dilution factor ([5]; serially diluted plasma, FIG. 17D): similarly increased according to the dilution factor | signal measured value of the serum sample versus dilution factor ([5]; serially diluted serum, FIG. 17C): increased according to the dilution factor | signal measured value versus level of recombinant TTR in the sample [6]: increased corresponding to the level of the recombinant TTR in the sample
